{"source": "patent US4515722A", "about": "“Phosphatidyl inositol analogs useful as anti-inflammatory/analgesic agents” (Merck & Co., Inc., priority 1982, dated 1985)", "key": {"[1]": {"tested_on": "Phosphatidyl inositol-specific phospholipase C", "assay": "Phosphatidyl inositol-specific phospholipase C assay with sonicated human platelets", "type": "biochemical", "protocol": "A. Protocol--Phosphatidyl inositol-specific phospholipase C assays. The assays were performed as follows: A mixture of PI (Sigma) and (^3 H-inositol)-PI in CHCl3 are blown to dryness under N2 and sonicated into a buffer containing DOC and CaCl2 so that the final concentrations in each 200 λ assay are:\n0.5 mg/ml DOC containing an appropriate amount of an active compound\nin 50 mM Hepes, 100 mM NaCl, 0.5 mg/ml BSA pH 7.\nAn aliquot of sonicated human platelets, 5×10^9 /ml, is added; the reaction is stopped after 10 minutes with a chloroform/methanol/H2 O solution and the upper water phase is counted to detect water-soluble inositol counts. The pH was checked during each assay using pH paper to verify that none of the compounds affected this parameter."}, "phospholipase C": {"tested_on": "phospholipase C", "conditions": "background statement; cited from earlier work"}, "[2]": {"conditions": "Table II, Concentration 0.20 mM"}}}
{"molecule": "CCCCCCCCCCCCCCCCCCP(=O)(O)O[C@H]1[C@H](O)[C@@H](O)[C@H](OP(=O)(O)CCCCCCCCCCCCCCCCCC)[C@@H](O)[C@H]1O", "note": "(relative stereo) [1,4-di(octadecylphosphonyl)-myo-inositol]", "values": [{"measurement": "% Inhibition", "setting": "[1]; Table II, Concentration 0.033 mM", "value": 18, "unit": "%"}, {"measurement": "% Inhibition", "setting": "[1]; Table II, Concentration 0.33 mM", "value": 37, "unit": "%"}]}
{"molecule": "CCCCCCCCCCCCP(=O)(O)O[C@@H]1[C@H](O)[C@H](O)[C@@H](O)[C@H](O)[C@H]1O", "note": "(relative stereo) [1-O--(dodecylphosphonyl)-myo-inositol]", "values": [{"measurement": "% Inhibition", "setting": "[1]; [2]", "value": 51, "unit": "%"}, {"measurement": "% Inhibition", "setting": "[1]; Table II, Concentration 2.0 mM", "value": 82, "unit": "%"}]}
{"molecule": "CCCCCCCCCCCCCCCCCCP(=O)(O)O[C@@H]1[C@H](O)[C@H](O)[C@@H](O)[C@H](O)[C@H]1O", "note": "(relative stereo) [1-O--(octadecylphosphonyl)-myo-inositol]", "values": [{"measurement": "% Inhibition", "setting": "[1]; Table II, Concentration 0.105 mM", "value": 12, "unit": "%"}, {"measurement": "% Inhibition", "setting": "[1]; Table II, Concentration 1.05 mM", "value": 66, "unit": "%"}]}
{"molecule": "CCCCCCCCCCCCCCCCCCP(=O)(O)O[C@H]1[C@H](O)[C@@H](O)[C@H](O)[C@@H](O)[C@]1(O)CO", "note": "(relative stereo) [DL-2-C--hydroxymethyl-1-O--octadecanephosphonyl-myo-inositol]", "values": [{"measurement": "% Inhibition", "setting": "[1]; Table II, Concentration 0.115 mM", "value": 51, "unit": "%"}, {"measurement": "% Inhibition", "setting": "[1]; Table II, Concentration 1.15 mM", "value": 89, "unit": "%"}]}
{"molecule": "CCCCCCCCCCCCCCCCCCP(=O)(O)O[C@H]1[C@H](O)[C@@H](O)[C@H](O)[C@@H](O)[C@H]1OC", "note": "(relative stereo) [DL-2-O--methyl-1-O--(octadecylphosphonyl)-myo-inositol]", "values": [{"measurement": "% Inhibition", "setting": "[1]; Table II, Concentration 0.122 mM", "value": 53, "unit": "%"}, {"measurement": "% Inhibition", "setting": "[1]; Table II, Concentration 1.22 mM", "value": 83, "unit": "%"}]}
{"molecule": "CCCCCCCCCCCCP(=O)(O)O[C@H]1[C@H](O)[C@@H](O)[C@H](OP(=O)(O)CCCCCCCCCCCC)[C@@H](O)[C@H]1O", "note": "(relative stereo) [Example 20, 1,4-di-O-(dodecylphosphonyl)myo-inositol]", "values": [{"measurement": "% Inhibition", "setting": "[1]; Table II, Concentration 0.043 mM", "value": 20, "unit": "%"}, {"measurement": "% Inhibition", "setting": "[1]; Table II, Concentration 0.432 mM", "value": 64, "unit": "%"}]}
{"molecule": "CCCCCCCCCCCCCCCCCCP(=O)(O)OC1C(O)C(O)C(O)C(O)C1O", "note": "(stereo not shown) [5-O--(octadecylphosphonyl)-myo-inositol]", "values": [{"measurement": "% Inhibition", "setting": "[1]; Table II, Concentration 0.050 mM", "value": 27, "unit": "%"}, {"measurement": "% Inhibition", "setting": "[1]; [2]", "value": 60, "unit": "%"}, {"measurement": "% Inhibition", "setting": "[1]; Table II, Concentration 1.00 mM", "value": 81, "unit": "%"}]}
{"molecule": "CCCCCCCC(=O)OCC(CCP(=O)(OC)OC1C(O)C(O)C(O)C(O)C1O)OC(=O)CCCCCCC", "note": "(stereo not shown) [(M) (M) CH3]", "values": [{"measurement": "% Inhibition", "setting": "[1]; Table I, Conc. 0.5 mM", "value": 50, "unit": "%"}, {"measurement": "% Inhibition", "setting": "[1]; Table I, Conc. 1.0 mM", "value": 72, "unit": "%"}]}
{"molecule": "CCCCCCCCCC(=O)OC(CCP(=O)(O)OC1C(O)C(O)C(O)C(O)C1O)COC(=O)Cc1ccc(-c2ccccc2)cc1", "note": "(stereo not shown) [.0.-.0.CH2 CO, 3-Decanoyloxy-4-(p-diphenylacetyloxy)-butyl-1-phosphonyl-myo-inositol]", "values": [{"measurement": "% Inhibition", "setting": "[1]; Table I, Conc. 0.5 mM", "value": 61, "unit": "%"}, {"measurement": "% Inhibition", "setting": "[1]; Table I, Conc. 1.0 mM", "value": 75, "unit": "%"}]}
{"molecule": "CCCCCCCCCC(=O)OC(CCP(=O)(O)OC1C(O)C(O)C(O)C(O)C1O)COC(=O)CCc1ccc(Oc2ccccc2)cc1", "note": "(stereo not shown) [.0.O.0.CH2 CH2 CO]", "values": [{"measurement": "% Inhibition", "setting": "[1]; Table I, Conc. 0.1 mM", "value": 47, "unit": "%"}, {"measurement": "% Inhibition", "setting": "[1]; Table I, Conc. 0.5 mM", "value": 66, "unit": "%"}, {"measurement": "% Inhibition", "setting": "[1]; Table I, Conc. 1.0 mM", "value": 76, "unit": "%"}]}
{"molecule": "CCCCCCCC(=O)OCC(CCP(=O)(O)OC1C(O)C(O)C(O)C(O)C1O)OC(=O)CCCCCCC", "note": "(stereo not shown) [n-C7 H15 CO, 3,4-Dioctanoyloxybutyl-1-phosphonyl-myo-inositol]", "values": [{"measurement": "% Inhibition", "setting": "[1]; Table I, Conc. 1.0 mM", "value": 64, "unit": "%"}]}
{"molecule": "CCCCCCCCCC(=O)OCC(CCP(=O)(O)OC1C(O)C(O)C(O)C(O)C1O)OC(=O)CCCCCCCCC", "note": "(stereo not shown) [n-C9 H19 CO, 3,4-Didecanoyloxybutyl-1-phosphonyl-myo-inositol]", "values": [{"measurement": "% Inhibition", "setting": "[1]; Table I, Conc. 1.0 mM", "value": 68, "unit": "%"}]}
{"molecule": "CCCCCCCCCCCCCCCC(=O)OCC(CCP(=O)(O)OC1C(O)C(O)C(O)C(O)C1O)OC(=O)CCCCCCCCCCCCCCC", "note": "(stereo not shown) [n-C15 H31 CO, 3,4-Dipalmitoyloxybutyl-1-phosphonyl-myo-inositol]", "values": [{"measurement": "% Inhibition", "setting": "[1]; Table I, Conc. 0.05 mM", "value": 37, "unit": "%"}, {"measurement": "% Inhibition", "setting": "[1]; Table I, Conc. 0.5 mM", "value": 82, "unit": "%"}, {"measurement": "% Inhibition", "setting": "[1]; Table I, Conc. 1.0 mM", "value": 84, "unit": "%"}]}
{"molecule": "c1ccc2c(c1)Nc1ccccc1S2", "note": "[phenothiazine]", "values": [{"measurement": "inhibition of phospholipase C", "setting": "phospholipase C", "value": "inhibited"}]}
